Source: US4791116A, “N,N-diethyl-N'-[(8α)-1-ethyl-6-methyl-ergolin-8-yl]-sulfamide useful as prolactin secretion inhibitor, anti-parkinson agents and anti-depressant agents” (priority 1983, dated 1988)
Where two headings read alike, the source gives them in different places.

Legend:
[1] = test system: central dopamine receptor; assay: Ungerstedt test: turning in rats lesioned unilaterally with 6-hydroxy-dopamine (anti-parkinson); format: in vivo, rat
Method: In particular the compounds are useful as central dopamine receptor agents for the treatment of e.g. Morbus Parkinson as indicated in standard tests. For example in rates lesioned unilaterally in the nigro-neostratal dopamine pathway by the effect of a 6-hydroxy-dopamine injection in the substantia nigra the compounds at doses of between about 3 and about 30 mg/kg p.o., according to the method of U.Ungerstedt Acta.physiol.scand.Suppl.387, 69-93 (1971) and substantially the same as that described by J. M. Vigouret et al., Pharmacology 16 (Suppl.1) 156-193 (1978), induce turning in the direction of the non-denerved side over a long period of time, e.g. several hours.

implantation = assay: inhibition of implantation in female rats; format: in vivo; conditions: Rattus norvegicus, sc, read-out: ED50 Implantation
Excerpt: The effects are for an unexpectedly long period e.g. several hours.

[2] = tolerability in the beagle dog; format: in vivo; conditions: p.o.

For CC(C)C[C@H]1C(=O)N2CCC[C@H]2[C@]2(O)O[C@](NC(=O)[C@@H]3C=C4c5cccc6[nH]c(Br)c(c56)C[C@H]4N(C)C3)(C(C)C)C(=O)N12 [Bromocriptine, reference compound], the “Ungerstedt test, No of rotations” value ([1]; at 0.1 mg/kg s.c.) was 80 and the ED50 (implantation) was 0.75 mg/kg.

In the case of CCN(CC)S(=O)(=O)N[C@H]1C[C@@H]2c3cccc4c3c(cn4CC)C[C@H]2N(C)C1 [Example 1, N,N-Diethyl-N'-[(8α)-1-ethyl-6-methyl-ergolin-8-yl]-sulfamide], the “Ungerstedt test, No of rotations” value ([1]; 3 mg/kg p.o., over 7 hours) is reported as 774, the “anti-parkinson activity relative to prolactin secretion activity” value ([1]; comparison with prolactin secretion tests) is reported as “particularly patent anti-parkinson activity relative to prolactin secretion activity” and the ED50 (implantation; female rats, s.c.) is reported as 0.23 mg/kg. The emetic effects [2] was “few emetic effects”.

With CCN(CC)S(=O)(=O)N[C@H]1C[C@@H]2c3cccc4c3c(cn4C(C)C)C[C@H]2N(C)C1 [Example 2, N,N-Diethyl-N'-[(8α)-1-isopropyl-6-methylergolin-8-yl]sulfamide] the “Ungerstedt test, No of rotations” value ([1]; 3 mg/kg p.o., over 7 hours) was 1608 and the ED50 (implantation; female rats, s.c.) was 0.08 mg/kg.
